Measured values from patent US12528812B2 (Genentech, Inc., priority 2020, dated 2026).
Like-named read-outs stand apart in the source and are kept apart here.

Assays:
[1] = target: T1, recombinant human JAK1 kinase domain protein (Residues 854-1154) (Homo sapiens, UniProt P23458); test: JAK1 biochemical assay (LabChip mobility shift, Ki); settings: read-out: Biochem JAK1 Ki
T1 construct: human JAK1 kinase domain protein (Residues 854-1154); purchased Proteros Biostructures GmbH (Martinsried, Germany); host or cells: insect cells
T1 sequence (P23458 854-1154): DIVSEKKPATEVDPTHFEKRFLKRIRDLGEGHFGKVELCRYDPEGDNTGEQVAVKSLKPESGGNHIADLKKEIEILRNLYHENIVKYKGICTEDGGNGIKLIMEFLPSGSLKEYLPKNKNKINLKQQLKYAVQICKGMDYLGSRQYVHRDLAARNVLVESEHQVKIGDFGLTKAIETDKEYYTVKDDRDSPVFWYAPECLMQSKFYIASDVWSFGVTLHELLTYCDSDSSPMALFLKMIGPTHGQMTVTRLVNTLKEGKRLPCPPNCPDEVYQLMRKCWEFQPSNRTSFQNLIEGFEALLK

[2] = tested on: IL-13-stimulated STAT6 phosphorylation in human lung bronchial epithelial BEAS-2B cell line; test: P-STAT6 BEAS-2B + IL-13 cell assay; format: cell-based; settings: BEAS2B cells, IL13 stimulation, read-out: Cellular JAK1 PSTAT6 BEAS2B + IL13
Experimental: In order to study the effect of JAK1 inhibitors in a cell line that is relevant to the cell biology of human asthma, an IL-13-stimulated STAT6 phosphorylation assay in the human lung bronchial epithelial BEAS-2B cell line was developed.
BEAS-2B cells (ATCC′ CRL-9609™) were grown in Bronchial Epithelial Growth Medium (BEGM) (Lonza Catalog No. CC-3170; Walkersville, MD; or PromoCell Catalog No. C-21060; Heidelberg, Germany). Test compound stock solutions (0.5 mM in DMSO) were serially diluted 1:2 in DMSO to generate a 10-point concentration curve (at 500× test concentration), which was further diluted by a 50-fold dilution step in BEGM to generate a 10× concentration curve (in 2% DMSO). Cells were plated at 100,000 cells/well in 200 μL of BEGM in 96-well plates and incubated for 48 hours at 37° C. in a humidified incubator. Medium was aspirated from the cells and replaced with 70 μL of fresh BEGM. Diluted test compound (10 μL; or 2% DMSO in assay medium) was added to the cells, and the plates were incubated for 1 hour at 37° C. in a humidified incubator. Twenty μL of 250 ng/mL human recombinant IL-13 (Bio Techne Catalog No. 213-ILB) was then added to the cells and incubated for 15 minutes at 37° C. Medium was aspirated from the cells and 60 μL of ice-cold 1× cell lysis buffer (Cell Signaling Technologies; Catalog No. 9803S) containing 1 mM PMSF was added to the cells. Assay plates were incubated at −80° C. for at least 1 hour. P-STAT6 was measured by coating GAR plates (MSD; Catalog No. L45RA-1) with rabbit anti-human total STAT6 antibody (Cell Signaling Technologies; Catalog No. 9362S), incubating the cell lysates in the coated plates overnight at 4° C., and then detecting with mouse anti-phospho-STAT6 (Tyr641) Clone 16E12 antibody (Millipore; Catalog No. 05-590, custom labeled by MSD with SULFO-tag) using standard MSD plate processing, washing, and detection protocols. Plates were read on the MESO SECTOR 5600.
Data analysis was performed by subtracting negative control values from all wells and determining percent of control using the positive control values; the IC50 was determined with a four-parameter logistic fit model as shown in Equation 4.

[3] = target: Recombinant human JAK2 kinase domain protein (Residues 812-1132) (Homo sapiens, UniProt O60674); test: JAK2 biochemical assay (LabChip mobility shift, Ki); settings: Biochem JAK2 Ki
Sequence of Recombinant human JAK2 kinase domain protein (Residues 812-1132) (O60674 812-1132): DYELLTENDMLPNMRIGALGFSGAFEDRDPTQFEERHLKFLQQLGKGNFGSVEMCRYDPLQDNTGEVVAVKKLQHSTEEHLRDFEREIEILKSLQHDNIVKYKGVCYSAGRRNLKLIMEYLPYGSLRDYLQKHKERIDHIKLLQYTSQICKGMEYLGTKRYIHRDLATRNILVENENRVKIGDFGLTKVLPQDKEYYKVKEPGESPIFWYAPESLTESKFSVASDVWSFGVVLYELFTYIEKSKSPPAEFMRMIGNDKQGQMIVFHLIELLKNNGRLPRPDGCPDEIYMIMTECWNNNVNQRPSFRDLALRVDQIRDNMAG

Structure (SMILES)	Ki [1]	IC50 ([2]; Homo sapiens, BEAS-2B)	Ki [3]	IC50 [2]
NCc1ccc(Oc2ccc(OC(F)F)c(-c3n[nH]cc3NC(=O)c3cnn4cccnc34)c2)cc1 [Example 3, N-[3-[5-[4-(aminomethyl)phenoxy]-2-(difluoromethoxy)phenyl]-1H-pyrazol-4-yl]pyrazolo[1,5-a]pyrimidine-3-carboxamide]	3.3 nM	15 nM	0.89 nM	–
Cc1ccc(Oc2ccc(OC(F)F)c(-c3nn(C[C@@H]4C[C@@H](F)CN4C)cc3NC(=O)c3cnn4cccnc34)c2)cc1C(=O)N(C)C (racemic) [Example 89, N-[3-[2-(difluoromethoxy)-5-[3-(dimethylcarbamoyl)-4-methyl-phenoxy]phenyl]-1-[[rac-(2R,4S)-4-fluoro-l-methyl-pyrrolidin-2-yl]methyl]pyrazol-4-yl]pyrazolo[1,5-a]pyrimidine-3-carboxamide]	1.2 nM	120 nM	1.3 nM	–
O=C(Nc1c[nH]nc1-c1cc(Oc2cccc(OCC(F)(F)F)c2)ccc1OC(F)F)c1cnn2cccnc12 [Example 4, N-[3-[2-(difluoromethoxy)-5-[3-(2,2,2-trifluoroethoxy)phenoxy]phenyl]-1H-pyrazol-4-yl]pyrazolo[1,5-a]pyrimidine-3-carboxamide]	1.1 nM	18 nM	0.7 nM	–
CN(C)CCN1CC(O)(Cn2cc(Oc3ccc(OC(F)F)c(-c4nn(C)cc4NC(=O)c4cnn5cccnc45)c3)cn2)C1 [Example 198, N-[3-[2-(difluoromethoxy)-5-[1-[[1-[2-(dimethylamino)ethyl]-3-hydroxy-azetidin-3-yl]methyl]pyrazol-4-yl]oxy-phenyl]-1-methyl-pyrazol-4-yl]pyrazolo[1,5-a]pyrimidine-3-carboxamide]	1.5 nM	1000 nM	0.83 nM	–
Cn1cc(NC(=O)c2cnn3cccnc23)c(-c2cc(Oc3ccc(CN4CCC[C@@H](O)C4)cc3)ccc2OC(F)F)n1 (racemic) [Example 163, N-[3-[2-(difluoromethoxy)-5-[4-[[rac-(3R)-3-hydroxy-1-piperidyl]methyl]phenoxy]phenyl]-1-methyl-pyrazol-4-yl]pyrazolo[1,5-a]pyrimidine-3-carboxamide]	1.5 nM	21 nM	0.37 nM	–
Cn1cc(NC(=O)c2cnn3cccnc23)c(-c2cc(Oc3cccc(CN4CCO[C@@H](CO)C4)c3)ccc2OC(F)F)n1 (stereo in doubt) [Example 75, N-[3-[2-(difluoromethoxy)-5-[3-[[rac-(2S)-2-(hydroxymethyl)morpholin-4-yl]methyl]phenoxy]phenyl]-1-methyl-pyrazol-4-yl]pyrazolo[1,5-a]pyrimidine-3-carboxamide]	0.84 nM	96 nM	0.89 nM	–
Cn1cc(NC(=O)c2cnn3cccnc23)c(-c2cc(Oc3ccc(CN4CCC[C@@H]4CO)cc3)ccc2OC(F)F)n1 (racemic) [Example 171, N-[3-[2-(difluoromethoxy)-5-[4-[[rac-(2R)-2-(hydroxymethyl)pyrrolidin-1-yl]methyl]phenoxy]phenyl]-1-methyl-pyrazol-4-yl]pyrazolo[1,5-a]pyrimidine-3-carboxamide]	1.9 nM	50 nM	0.95 nM	–
O=C(Nc1cn(CCN[C@H]2C[C@H](O)C2)nc1-c1cc(Oc2ccccc2)ccc1OC(F)F)c1cnn2cccnc12 [Example 43, N-[3-[2-(difluoromethoxy)-5-phenoxy-phenyl]-1-[2-[(3-hydroxycyclobutyl)amino]ethyl]pyrazol-4-yl]pyrazolo[1,5-a]pyrimidine-3-carboxamide]	0.3 nM	24 nM	0.31 nM	–
Cn1cc(NC(=O)c2cnn3cccnc23)c(-c2cc(Oc3cccc(CNCCN4CCOCC4)c3)ccc2OC(F)F)n1 [Example 47, N-[3-[2-(difluoromethoxy)-5-[3-[(2-morpholinoethylamino)methyl]phenoxy]phenyl]-1-methyl-pyrazol-4-yl]pyrazolo[1,5-a]pyrimidine-3-carboxamide]	2 nM	24 nM	1.6 nM	–
Cn1cc(NC(=O)c2cnn3cccnc23)c(-c2cc(Oc3cccc(CN)n3)ccc2OC(F)F)n1 [Example 39, N-[3-[5-[[6-(aminomethyl)-2-pyridyl]oxy]-2-(difluoromethoxy)phenyl]-1-methyl-pyrazol-4-yl]pyrazolo[1,5-a]pyrimidine-3-carboxamide]	1.5 nM	35 nM	1.3 nM	–
CN1CCCC(O)(Cn2cc(Oc3ccc(OC(F)F)c(-c4nn(C)cc4NC(=O)c4cnn5cccnc45)c3)cn2)CC1 (stereo not drawn) [Example 197, N-[3-[2-(difluoromethoxy)-5-[1-[(4-hydroxy-l-methyl-azepan-4-yl)methyl]pyrazol-4-yl]oxy-phenyl]-1-methyl-pyrazol-4-yl]pyrazolo[1,5-a]pyrimidine-3-carboxamide]	0.81 nM	–	0.51 nM	130 nM
Cc1ccc(Oc2ccc(OC(F)F)c(-c3nn(CCN[C@H]4CCOC4)cc3NC(=O)c3cnn4cccnc34)c2)cc1C(=O)N(C)C (racemic) [Example 58, N-[3-[2-(difluoromethoxy)-5-[3-(dimethylcarbamoyl)-4-methyl-phenoxy]phenyl]-1-[2-[[rac-(3R)-tetrahydrofuran-3-yl]amino]ethyl]pyrazol-4-yl]pyrazolo[1,5-a]pyrimidine-3-carboxamide]	1.2 nM	33 nM	0.7 nM	–
CN1CC(n2cc(Oc3ccc(OC(F)F)c(-c4nn(C)cc4NC(=O)c4cnn5cccnc45)c3)cn2)C1 [Example 115, N-[3-[2-(difluoromethoxy)-5-[1-(1-methylazetidin-3-yl)pyrazol-4-yl]oxy-phenyl]-1-methyl-pyrazol-4-yl]pyrazolo[1,5-a]pyrimidine-3-carboxamide]	3 nM	48 nM	1.6 nM	–
CN1CC(O)(c2cc(Oc3ccc(OC(F)F)c(-c4nn(C)cc4NC(=O)c4cnn5cccnc45)c3)cc(C(F)(F)F)c2)C1 [Example 106, N-[3-[2-(difluoromethoxy)-5-[3-(3-hydroxy-1-methyl-azetidin-3-yl)-5-(trifluoromethyl)phenoxy]phenyl]-1-methyl-pyrazol-4-yl]pyrazolo[1,5-a]pyrimidine-3-carboxamide]	1.6 nM	74 nM	1.7 nM	–
Cc1cc(Oc2ccc(OC(F)F)c(-c3nn(C)cc3NC(=O)c3cnn4cccnc34)c2)cc(C2(O)CN(C)C2)c1 [Example 102, N-[3-[2-(difluoromethoxy)-5-[3-(3-hydroxy-1-methyl-azetidin-3-yl)-5-methyl-phenoxy]phenyl]-1-methyl-pyrazol-4-yl]pyrazolo[1,5-a]pyrimidine-3-carboxamide]	0.44 nM	24 nM	0.43 nM	–
CN(C)C(=O)Cc1ccc(Oc2ccc(OC(F)F)c(-c3nn(C)cc3NC(=O)c3cnn4cccnc34)c2)cc1 [Example 129, N-[3-[2-(difluoromethoxy)-5-[4-[2-(dimethylamino)-2-oxo-ethyl]phenoxy]phenyl]-1-methyl-pyrazol-4-yl]pyrazolo[1,5-a]pyrimidine-3-carboxamide]	0.27 nM	14 nM	0.15 nM	–
CCN1CCC(O)(Cn2cc(Oc3ccc(OC(F)F)c(-c4nn(C)cc4NC(=O)c4cnn5cccnc45)c3)cn2)CC1 [Example 212, N-[3-[2-(difluoromethoxy)-5-[1-[(1-ethyl-4-hydroxy-4-piperidyl)methyl]pyrazol-4-yl]oxy-phenyl]-1-methyl-pyrazol-4-yl]pyrazolo[1,5-a]pyrimidine-3-carboxamide]	0.84 nM	120 nM	0.6 nM	–
